From patent US20040058852A1, “Use of gap-junction blockers in neurodegenerative disease” (priority 2002, published 2004)
“Also recorded” adds a separate entry of the source.

How the values were obtained:
[1] = tested on: secondary edema following focal hypoxic-ischemic insult; settings: experimental animal models; cited from earlier work
newborn infants = newborn infants or heart surgery using deep hypothermic circulatory arrest; cited from earlier work
[2] = tested on: CA1 pyramidal neurons in organotypic hippocampal slice cultures; format: cell-based, Sprague-Dawley rat
Experimental: Organotypic hippocampal slice cultures were prepared from 9- to 12-day old Sprague-Dawley rat pups (Charles River, Wilmington, Del.) of both sexes (Stoppini et al., 1991). Rats were decapitated under deep ketamine anesthesia, the hippocampi rapidly dissected out and placed immediately into ice-cold dissection medium containing: 3.5 mM KCl, 0.5 mM NaH2PO4, 10 mM MgSO4, 5 mM NaHCO3, 118 mM n-methyl-D-glucosamina, 1.1 mM KH2PO4, 10 mM HEPES, 20 mM D-glucose, pH 7.35, gassed with 95% O2/5% CO2. Transverse slices of hippocampus plus entorhinal cortex were cut using a spring-loaded grid of 20 μm diameter wires spaced 400 μm apart. Slices were immediately transferred into dissection medium, separated and placed on semi-permeable membrane tissue culture inserts (Millipore Corporation, Bedford, Mass.) in a 6-well plate, each well containing 1 ml of culture medium (50% Minimum Essential Medium, 25% Hank's balanced salt solution, 25% heat-inactivated horse serum, 13 mM HEPES, 2.5 mg/ml glucose). Cultures were maintained at 35° C. in a humidified 5% CO2 incubator and medium was changed every 2-3 days.
After 6-10 days in culture, hippocampal slice cultures were exposed to hypoxia-ischemia (HI) by transient oxygen and glucose deprivation. Slices were transferred into another six-well plate containing 1 ml of Ringermannitol glucose-free medium per well, containing 1.25 mM CaCl2, 0.9 mM MgSO4, 5.4 mM KCl, 0.44 mM KH2PO4, 137 mM NaCl, 4.2 mM NaHCO3, 0.35 mM NaH2PO4, 16.7 mM HEPES, and 27.5 mM mannitol, and placed in a hypoxic box continuously gassed with 95% N2/5% CO2 for 45 min. They were then returned to normal medium with carbon dioxide until measurement of neuronal death.
Carbenoxolone (disodium salt) was purchased from Sigma (St. Louis, Mo.), propidium iodide and carboxyfluorescein diacetate from Molecular Probes (Eugene, Oreg.). Cleaved caspase-3 antibody was purchased from Cell Signaling (Beverly, Mass.).
Media containing 1 μM PI was applied for 10 min to slices and PI-labeled dead cells imaged using […] filters. IPLab (Signal Analytics Corp.) and NIH image analysis programs were used to quantitate total fluorescence intensity for equal regions of interest within the CA1 pyramidal cell body layer (stratum pyramidale).

[3] = tested on: synaptic transmission in CA1 stratum radiatum of hippocampal slice cultures; assay: Schaffer collateral-evoked excitatory postsynaptic potentials in slice cultures 24 hr post-HI; format: cell-based, Sprague-Dawley rat; settings: 75 μM, 45 min HI
Experimental: Organotypic hippocampal slice cultures were prepared from 9- to 12-day old Sprague-Dawley rat pups (Charles River, Wilmington, Del.) of both sexes (Stoppini et al., 1991). Rats were decapitated under deep ketamine anesthesia, the hippocampi rapidly dissected out and placed immediately into ice-cold dissection medium containing: 3.5 mM KCl, 0.5 mM NaH2PO4, 10 mM MgSO4, 5 mM NaHCO3, 118 mM n-methyl-D-glucosamina, 1.1 mM KH2PO4, 10 mM HEPES, 20 mM D-glucose, pH 7.35, gassed with 95% O2/5% CO2. Transverse slices of hippocampus plus entorhinal cortex were cut using a spring-loaded grid of 20 μm diameter wires spaced 400 μm apart. […]
Slice cultures were placed in an interface recording chamber between artificial cerebrospinal fluid (ACSF; perfusion rate 3 ml/min) and a humidified atmosphere of 95% O2/5% CO2. […] Extracellular excitatory postsynaptic potentials (EPSPs) were recorded (2 M NaCl-filled electrodes) in stratum radiatum and elicited by bipolar Schaffer collateral stimulation (intensities 20-200 μA), recorded using an Axopatch 200A amplifier in current-clamp mode.

[4] = tested on: gap junction coupling in hippocampal slice cultures; assay: Fluorescence recovery after photobleaching (FRAP) in CA1 fields of hippocampal slice cultures; format: cell-based, Sprague-Dawley rat; set-up: dose or concentration left out as unconfirmed
Experimental: Fluorescence recovery in CA1 fields of hippocampal slice cultures was evaluated as in Wade et al., 1986. Hippocampal slice cultures were loaded by 45 min application of carboxyfluorescein diacetate (30 μM). CA1 fields of view were photobleached for 2 min using the 488 nm laser line of a confocal microscope (Nikon RCM 8000) and images acquired at low power at 1 min intervals thereafter. Quantitative image analysis was performed using Polygon-Star software (Nikon).

[5] = tested on: rat pups subjected to intrauterine hypoxic-ischemia; assay: Intrauterine hypoxic-ischemia (transient global anoxia during C-section delivery): survival, growth, histopathology; format: in vivo; settings: for survived reperfusion / mortality: 75 mg/Kg
Experimental: Sprague Dawley fetuses were subjected to transient global anoxia during C-section delivery (Bjelke et al., 1991; Brake et al., 1997). Pregnant rats at term (21 days gestation) were decapitated, the abdomen incised, and the uterus was quickly isolated from its blood supply and surrounding fat tissue and connective tissue. Acute anoxia was induced by immersing the intact uterus containing the fetuses into 37° C. saline for 12.5-15 min. […] Blood gases and pH Samples were analyzed for blood gases and pH on a blood gas monitor (RapidLab 855, Bayer,UK).
Animals were deeply anesthetized with ketalar and perfused via a transcardiac site after which brains were removed, rinsed with saline and fixed in formaldehyde buffered to pH 7.35. Brains were cut into sagittal sections, sliced in 2 mm cross-sections (Braintree Scientific Inc, Mass.), dehydrated with a tissue processor (TP1050, Leica Instruments, Germany), embedded in paraffin, sectioned with a Leica freezing microtome, and stained with haematoxylon-eosin.
Groups were compared by ANOVA or Student's t-test, as appropriate, with group size pre-selected based on P<0.05 significance criterion.

caspase-3 = assay: Western blot of activated caspase-3 in whole brain 24 hr after intrauterine HI; format: in vivo, rat; settings: for HI-induced increase of activated caspase-3 in whole brain: 75 mg/kg i.p. immediately after HI, 24 hr
Experimental: Protein was extracted from whole-brain 24 hr following HI and concentration determined with a BCA Protein Assay Kit (Pierce, Rockford, Ill.). Twenty-five μg protein/sample was applied per lane and separated by electrophoresis in 10% or 10-20% SDS-polyacrylamide gels (BioRad, Hercules, Calif.) and transferred to nitrocellulose membranes (Schleicher and Schuell, Keene, N.H.). Membranes were blotted […] with cleaved caspase-3 ([…]) antibody (1:700) overnight at 4° C., and then incubated in horseradish peroxidase-conjugated anti-rabbit IgG 1:1500. […] As an internal control, glyceraldehyde-3-phosphate dehydrogenase (GAPDH) was blotted with horseradish peroxidase-conjugated goat antimouse IgG at a concentration of 1:4000. Densitometriy of chemiluminescent bands was quantified using Scion Image densitometer software (NIH), and band densities normalized to GAPDH density in the same gel.

[6] = tested on: neonatal rats with seizures following intrauterine HI insults; assay: Behavioral and electrographic (EEG) seizures after intrauterine hypoxic-ischemia; format: in vivo, rat; set-up: ischemic pups that died: dose or concentration left out as unconfirmed; settings: for behavioral seizures following HI insults: i.p. at the onset of motor seizures; for electrographic seizures (EEG epileptiform activity): i.p., EEG 40 min after administration, one pup
Source text: Rat pups were delivered by C-section. One group was subjected to intra-uterine hypoxic-ischemia, the control group was also delivered by caesarian-section but not subjected to a period of hypoxic-ischemia.
Surviving animals in all groups were examined neuropathologically at 21 days following delivery (P21).

[7] = intraperitoneal and subcutaneous injections; cited from earlier work
[8] = tested on: brain damage in immature fetuses and newborn infants; settings: randomized double-blind trials; cited from earlier work
infarcts after stroke = settings: applied before the induction of stroke; cited from earlier work
[9] = i.p. to newborn rats at least 15 min after HI

For `Oc1ncnc2[nH]ncc12` [Allopurinol], the “severity of secondary edema” value [1] is given as “reduced” and the “outcome in clinical trials” value (newborn infants) is given as “has not been successful”.

For `CC1(C)[C@@H](OC(=O)CCC(=O)O)CC[C@]2(C)[C@H]3C(=O)C=C4[C@@H]5C[C@@](C)(C(=O)O)CC[C@]5(C)CC[C@@]4(C)[C@]3(C)CC[C@@H]12` [carbenoxolone, Carbenoxolone], the “viability or morphology of control organotypic slice cultures” value [2] was “did not detectably alter”, the “neuroprotection when applied in vitro” value ([2]; 75 μM) was “marked neuroprotection” and the “delayed death of CA1 pyramidal neurons assessed by PI staining intensity” value ([2]; 75 μM added 30 min prior to, during and 60 min after a 45 min HI insult, 24 hr following HI) was “markedly reduced”. For the same molecule, the “PI fluorescence 24 hr post-HI in hippocampal slice culture” value ([2]; 75 μM, 60 min after the end of the HI episode (FIG. 2c)) was “reduced PI fluorescence”, the “protection against loss of synaptic transmission in CA1 stratum radiatum (EPSP)” value [3] was “very effective” and the “gap junction coupling in slice cultures” value [4] was “effective at reducing gap junction coupling”. The survived reperfusion ([5]; 4 hrs) was 76.5±9%, the mortality ([5]; 4 hrs of reoxygenation/recirculation after perinatal HI) was 23.5% and the survived reperfusion ([5]; 24 hrs) was 73±9.5%. The mortality ([5]; 24 hrs after perinatal HI) was 27%, the survived reperfusion ([5]; 48 hrs) was 70±12.5% and the mortality ([5]; 48 hrs after perinatal HI) was 30%. For the same molecule, the cerebellar damage ([5]; 75 mg/kg i.p. after intrauterine HI) was “preventing cerebellar damage”, the “extent of histopathological damage in the hippocampus and neocortex” value ([5]; 75 mg/kg i.p. after intrauterine HI, n=5) was “dramatically reduced” and the “long-term development assessed by size” value ([5]; 75 mg/kg immediately after intrauterine HI, compared to HI alone (FIG. 3d)) was “improves”. The survival rate ([5]; 21 days post-HI) was 70±12%, the “crossing of the blood-brain barrier” value [5, 9] was “cross the blood-brain barrier in sufficient time and concentration” and the “long-term damage induced by HI” value [5, 9] was “markedly reduce”. The body weight ([5]; postnatal day 21, HI rats) was 29.2 ± 3 g, the “HI-induced increase of activated caspase-3 in whole brain” value (caspase-3) was “largely prevented” and the “HI-induced increase of activated caspase-3 in whole brain” value (caspase-3; listed as Carbenoxolone) was “reduced the activation”. The “activation of caspase-3, reduced to” value (caspase-3; 75 mg/kg i.p. immediately after perinatal HI, 24 hr post-HI, relative to HI alone) was 43±15%, the “caspase-3 band densities (normalized to GAPDH)” value (caspase-3; HI+Carb, 75 mg/kg i.p., 24 hr post-HI) was 302±115 and the “behavioral seizures following HI insults” value [6] was “absence of seizures; also recorded: abolishes”. For the same molecule, the “behavioral seizures following HI insults” value ([6]; listed as Carbenoxolone) was “stopped”, the “electrographic seizures (EEG epileptiform activity)” value [6] was “loss of electrographic epileptiform activity; also recorded: abolishes” and the “electrographic seizures (EEG epileptiform activity)” value ([6]; listed as Carbenoxolone) was “stopped”. The “ischemic pups that died” value ([6]; treated with carbenoxolone) was “One of 12” and the “crossing of normoxic foeto-placental and adult blood-brain barriers” value [7] was “has been shown to cross”.

In the case of `O=S(=O)([O-])[O-].[Mg+2]` [magnesium sulfate], the “protective effect against brain damage” value [8] is listed as “did not provide a protective effect”.

In the case of `CCCCCCCCO` [octanol], the infarct size (infarcts after stroke) is given as “reduced infarct size; also recorded: reduce the size of infarcts”.
